Our source for the TGI and GI50 values is PubChem BioAssay (NCI).

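Where inhibition never reached the appropriate level, the endpoint shown equals the highest concentration tested. Otherwise, values were interpolated linearly from a five-concentration, 48-hour dose response in 96-well plates. At the GI50, growth is halved. TGI marks complete inhibition of growth.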 Some results are limits rather than exact numbers.

Some test systems named below: NCI-H460 lung; HT29 colon; NCI-H226 lung; OVCAR-5 ovarian; RXF 393 renal; SK-OV-3 ovarian; OVCAR-8 ovarian; MDA-N; M14 melanoma; BT-549 breast.
Holding throughout (experiment): growth of human tumour cells (NCI), 48 h

Regarding `Cc1ccc(N2C(=O)C3CSCN3C2=O)cc1` (stereo not drawn), the TGI in the assay on NCI-H460 lung, with HT29 colon, in the assay on NCI-H226 lung, in the assay on OVCAR-5 ovarian, in the assay on RXF 393 renal and in the assay with SK-OV-3 ovarian was greater than 100 µM in each case. Moreover, in the assay with OVCAR-8 ovarian, the TGI was greater than 100 µM. In addition, the GI50 with RXF 393 renal was greater than 100 µM.
As for `COC(=O)c1onc(C2OC(C)(C)OC2C(O)COC(c2ccccc2)(c2ccccc2)c2ccccc2)c1C(=O)OC` (stereo not drawn), the TGI in the assay with HT29 colon, in the assay on NCI-H226 lung, in the assay on OVCAR-5 ovarian, with MDA-N, in the assay with RXF 393 renal and in the assay on M14 melanoma was greater than 100 µM each time. In the assay with OVCAR-8 ovarian, this molecule returned a TGI greater than 100 µM.
`Oc1ccc2ccccc2c1OCc1nnc(CCCCCCCCc2nnc(COc3c(O)ccc4ccccc34)n2Nc2ccccc2)n1Nc1ccccc1`: the TGI with BT-549 breast is 77.7 µM; in the assay on NCI-H460 lung, greater than 100 µM; in the assay on HT29 colon it was 36.3 µM; in the assay on NCI-H226 lung, greater than 91.1 µM; with OVCAR-5 ovarian it was greater than 95.9 µM; with RXF 393 renal, greater than 78 µM. The TGI is greater than 100 µM in the assay on SK-OV-3 ovarian, 44.7 µM in the assay with M14 melanoma and 63.1 µM with OVCAR-8 ovarian.
Regarding `N/N=C(/N)SCCCCCCCCCCS/C(N)=N/N`, the TGI in the assay on BT-549 breast was 68.7 µM; with NCI-H460 lung it was 32.7 µM; in the assay with HT29 colon, 27.7 µM; with NCI-H226 lung, 83.1 µM; with OVCAR-5 ovarian, greater than 100 µM; in the assay on M14 melanoma, greater than 100 µM. The molecule further yielded a TGI in the assay on OVCAR-8 ovarian of 39.3 µM.
In the case of `CC/C=C/c1cc2c(cc1O)CCC1C2CC[C@@]2(C)C1CC[C@@H]2O` (stereo partly drawn), the TGI stood at 17.3 µM with NCI-H460 lung; 21.1 µM in the assay with HT29 colon; 10.6 µM in the assay with NCI-H226 lung; 26.8 µM in the assay with OVCAR-5 ovarian; 0.637 µM with MDA-N; 7.92 µM in the assay with RXF 393 renal. Moreover, the TGI in the assay with SK-OV-3 ovarian came out at 16.7 µM; in the assay with M14 melanoma, 12.2 µM; with OVCAR-8 ovarian, 20.3 µM.
Consider `O=S(=O)(/N=S(/Nc1ccccc1)C(F)(F)Cl)c1ccccc1` (stereo not drawn), for which the TGI in the assay on NCI-H460 lung, in the assay on HT29 colon, in the assay on NCI-H226 lung, in the assay on OVCAR-5 ovarian, in the assay with MDA-N and in the assay on RXF 393 renal was greater than 100 µM in each case. The TGI in the assay on SK-OV-3 ovarian, in the assay with M14 melanoma and in the assay with OVCAR-8 ovarian was greater than 100 µM each time.
Turning to `COc1ccc(/C=C2\CCCc3ccccc3C2=O)cc1`, the TGI in the assay with BT-549 breast is 17.3 µM; with NCI-H460 lung, greater than 100 µM; in the assay with HT29 colon, 14.6 µM; in the assay on NCI-H226 lung it was 2.98 µM; in the assay on OVCAR-5 ovarian, greater than 100 µM; in the assay with SK-OV-3 ovarian, greater than 60.6 µM. Also, the figures for the TGI in the assay with M14 melanoma and with OVCAR-8 ovarian were 22.2 µM and greater than 44.5 µM, respectively.
Regarding `O=C(O)Cn1c2c(c3c1-c1ccccc1C3=O)C(=O)CCC2`, the GI50 in the assay with BT-549 breast, in the assay with NCI-H460 lung, in the assay on HT29 colon, with NCI-H226 lung, in the assay on OVCAR-5 ovarian and in the assay with RXF 393 renal was greater than 100 µM in each case. The GI50 with SK-OV-3 ovarian, with M14 melanoma and with OVCAR-8 ovarian was greater than 100 µM in each case. In addition, the TGI in the assay with BT-549 breast, with NCI-H460 lung, in the assay on HT29 colon, in the assay with NCI-H226 lung, in the assay with OVCAR-5 ovarian and in the assay on RXF 393 renal was greater than 100 µM each time. Besides, the TGI in the assay with SK-OV-3 ovarian, in the assay with M14 melanoma and in the assay on OVCAR-8 ovarian was greater than 100 µM throughout.
For the molecule `COc1cccc(C(C#N)NNC(=O)c2c(Cl)c(Cl)c(Cl)c(Cl)c2-c2nc3ccc(C(=O)c4ccccc4)cc3[nH]2)c1O` (stereo not drawn), the TGI in the assay on BT-549 breast is greater than 100 µM; in the assay on HT29 colon it was greater than 100 µM; with NCI-H226 lung, 8.43 µM; with OVCAR-5 ovarian, 70.1 µM; in the assay with RXF 393 renal it was 9.03 µM; in the assay with SK-OV-3 ovarian, greater than 100 µM. For the same molecule, the TGI in the assay with M14 melanoma is 25.1 µM; with OVCAR-8 ovarian, greater than 100 µM.
Take `COc1ccc(/C=c2\[nH]c3nc(=O)c(N4CCCCC4)c(N)n3c2=O)cc1`: the TGI in the assay on HT29 colon, with NCI-H226 lung, in the assay on OVCAR-5 ovarian, in the assay with MDA-N, in the assay with RXF 393 renal and with SK-OV-3 ovarian was greater than 100 µM throughout. Moreover, the TGI in the assay on M14 melanoma and in the assay on OVCAR-8 ovarian was greater than 100 µM each time.
Take `COC(=O)c1c2c(cc3c1CC1(Cc4cc5c(c(C)c4C1)CCC5)C3)CCC2` (stereo not drawn): the TGI in the assay with NCI-H460 lung, with HT29 colon, in the assay with OVCAR-5 ovarian, with MDA-N, in the assay with RXF 393 renal and in the assay on SK-OV-3 ovarian was greater than 100 µM throughout. In addition, the TGI in the assay on M14 melanoma and with OVCAR-8 ovarian was greater than 100 µM throughout.
Turning to `Oc1c(Cl)cc2cc1-c1cc(cc(Cl)c1O)CCc1c(cc(Cl)c(O)c1Cl)-c1cc(Cl)c(c(Cl)c1O)/C=C\2`, the TGI in the assay on BT-549 breast is greater than 50 µM; in the assay on NCI-H460 lung it was 13.1 µM; with HT29 colon, 25.2 µM; in the assay with NCI-H226 lung, 22.5 µM; in the assay on OVCAR-5 ovarian it was 19.5 µM; in the assay on RXF 393 renal, greater than 50 µM. The TGI in the assay with SK-OV-3 ovarian worked out at 18 µM; in the assay on M14 melanoma it was 15.6 µM; with OVCAR-8 ovarian, 16.1 µM.
`COc1cc2nc(N3CCC[C@H](NC4=CC(=O)c5ccccc5C4=O)C3)nc(N)c2cc1OC`: the GI50 is 1.96 µM with NCI-H460 lung; 2.02 µM with HT29 colon; 16.6 µM in the assay on NCI-H226 lung; 2.05 µM with OVCAR-5 ovarian; 2.22 µM with SK-OV-3 ovarian; 2.06 µM with OVCAR-8 ovarian. Moreover, the TGI in the assay with NCI-H460 lung came out at 4.01 µM; in the assay with HT29 colon it was 4.07 µM; in the assay on NCI-H226 lung it was 55.6 µM; with OVCAR-5 ovarian, 4 µM; in the assay with SK-OV-3 ovarian, 4.22 µM; in the assay with OVCAR-8 ovarian, 4.28 µM.
Consider `O=c1[nH]n(CCc2ccccc2CCl)c2ccc([N+](=O)[O-])cc12`, for which the TGI in the assay with BT-549 breast, with NCI-H460 lung, with HT29 colon, with NCI-H226 lung, in the assay with OVCAR-5 ovarian and with RXF 393 renal was greater than 100 µM throughout. Further, the TGI in the assay with M14 melanoma and in the assay on OVCAR-8 ovarian was greater than 100 µM in each case.
